This is an account of results in patent US7868147B2, “Fluorescent probe” (Sekisui Medical Co., Ltd., priority 2003, dated 2011).

The conditions of series [1]: literature (Lindqvist et al., 1966); cited from earlier work.
The nature of series [2]: Oxidation potential of the benzene ring moiety (PET donor). The series is classed as physicochemical. The conditions noted are these: 0.1 M acetonitrile containing tetrabutylammonium perchlorate (TBAP). The source says: For the selection of a combination of R^1 and R^2, information of the electron density of the benzene ring to which they bind may be utilized. Information of the electron density of the benzene ring is easily available, for example, by calculating oxidation potential of said benzene ring according to a quantum chemical means. A reduction of the oxidation potential of said benzene ring means an increase of the electron density of said benzene ring, which corresponds to an elevation of HOMO orbital energy. For example, HOMO energy of said benzene ring moiety can be determined by a density functional theory (B3LYP/6-31G(d)). All the oxidation potentials described in the specification are indicated as values obtained with a saturated calomel electrode as a reference electrode, of which base line is different by about 0.24 V from that used for values obtained with a silver/silver nitrate electrode (Ag/Ag^+) as a reference electrode.
(§1) Correlation between fluorescence quantum yield and the oxidation potential of the benzene ring moiety of each compound prepared above was studied. As clearly shown by the results in the figure, the fluorescence quantum yield of each compound changed depending on the oxidation potential of the benzene ring moiety. In an alkaline solution at pH 13, the OH group of the xanthene ring dissociates its proton to become an anion, and under this condition, the compound whose oxidation potential is 1.20V or lower became almost non-fluorescent, whereas the compound whose oxidation potential is 1.65V or higher emitted fluorescence with a quantum yield of almost 1. Between the two values, it was observed that the quantum yield decreases according to the decrease in the oxidation potential. An oxidation potential of the benzene ring under the acidic condition at pH 3.4, which has an influence on fluorescence, is different from that under a basic condition, i.e., the compound whose oxidation potential is 1.60V or lower is almost no fluorescent, whereas the compound whose oxidation potential is 1.90V or higher emitted fluorescence with a quantum yield of almost 0.3. It is known that the OH group of the xanthene ring is protonated at pH 3.4, and under this condition, the quantum yield of Fluorescein is about 0.3.

Series [3] is described as follows: Maximum excitation and fluorescence wavelength of fluorescein derivatives. The settings on record: measured in 0.1 N aqueous NaOH. It counts as physicochemical.
Description: as §1

Series [4] can be described thus: Fluorescence quantum yield. The series is classed as physicochemical. The conditions noted are these: for Φfl (pH 3.4): pH 3.4, xanthene OH protonated; for Φfl (pH 13): pH 13, xanthene OH deprotonated.
Description: as §1

The nature of series [5]: Fluorescence quantum yield. It counts as physicochemical. The conditions noted are these: 100 mM sodium phosphate buffer.

As to `O=c1ccc2c(-c3ccccc3)c3ccc(O)cc3oc-2c1` [6-Hydroxy-9-phenylfluorone], in series [1], the “fluorescence quantum yield relative to fluorescein” value is recorded as “lower fluorescence quantum yield”.

As to `Cc1ccccc1-c1c2ccc(=O)cc-2oc2cc(O)ccc12` [Compound 1], the Oxidation potential in series [2] is 2.19 V vs SCE. In series [3], this compound showed a Maximum excitation wavelength of 491 nm and a Maximum fluorescence wavelength of 510 nm. Moreover, in series [4], the “Φfl (pH 3.4)” value came to 0.319 and the “Φfl (pH 13)” value stood at 0.847.

`Cc1ccc(-c2c3ccc(=O)cc-3oc3cc(O)ccc23)c(C)c1` [Compound 2]: the Oxidation potential in series [2] turned out to be 2.08 V vs SCE. In series [3], this compound had a Maximum excitation wavelength of 491 nm and a Maximum fluorescence wavelength of 510 nm. Further, in series [4], the “Φfl (pH 3.4)” value came out at 0.307 and the “Φfl (pH 13)” value came to 0.865.

`Cc1ccc(C)c(-c2c3ccc(=O)cc-3oc3cc(O)ccc23)c1` [Compound 3]: the Oxidation potential in series [2] came out at 1.98 V vs SCE. In addition, in series [3], the Maximum excitation wavelength was 491 nm and the Maximum fluorescence wavelength was 510 nm. In series [4], the “Φfl (pH 3.4)” value was 0.319 and the “Φfl (pH 13)” value was found to be 0.887.

`COc1ccccc1-c1c2ccc(=O)cc-2oc2cc(O)ccc12` [Compound 4]: in series [2], the Oxidation potential was 1.75 V vs SCE. In series [3], this compound displayed a Maximum excitation wavelength of 494 nm and a Maximum fluorescence wavelength of 515 nm. In series [4], the “Φfl (pH 3.4)” value is 0.076 and the “Φfl (pH 13)” value turned out to be 0.860.

`COc1ccc(-c2c3ccc(=O)cc-3oc3cc(O)ccc23)c(C)c1` [Compound 5]: the Oxidation potential in series [2] was determined as 1.66 V vs SCE. In series [3], this compound registered a Maximum excitation wavelength of 492 nm and a Maximum fluorescence wavelength of 509 nm. In series [4], the “Φfl (pH 3.4)” value is 0.010 and the “Φfl (pH 13)” value is reported as 0.840.

On to `COc1ccc(C)cc1-c1c2ccc(=O)cc-2oc2cc(O)ccc12` [Compound 6], for which the Oxidation potential in series [2] is 1.57 V vs SCE. Besides, in series [3], the Maximum excitation wavelength amounted to 494 nm and the Maximum fluorescence wavelength worked out at 514 nm. Besides, in series [4], the “Φfl (pH 3.4)” value was determined as 0.004 and the “Φfl (pH 13)” value was 0.500.

Regarding `COc1ccc(-c2c3ccc(=O)cc-3oc3cc(O)ccc23)c(OC)c1` [Compound 7], the Oxidation potential in series [2] stood at 1.44 V vs SCE. In series [3], this compound displayed a Maximum excitation wavelength of 494 nm and a Maximum fluorescence wavelength of 513 nm. In series [4], the “Φfl (pH 3.4)” value turned out to be 0.001 and the “Φfl (pH 13)” value is on record as 0.200.

Consider `COc1ccc(OC)c(-c2c3ccc(=O)cc-3oc3cc(O)ccc23)c1` [Compound 8], for which, in series [2], the Oxidation potential stood at 1.26 V vs SCE. In series [3], this compound showed a Maximum excitation wavelength of 494 nm and a Maximum fluorescence wavelength of 512 nm. In addition, in series [4], the “Φfl (pH 3.4)” value is given as 0.000 and the “Φfl (pH 13)” value was 0.010.

Compound `COc1ccc(-c2c3ccc(=O)cc-3oc3cc(OP(=O)(O)O)ccc23)c(C)c1` [Compound 11] gave a Φfl in series [5] (pH 7.4) of 0.029.

The compound `COC(=O)COc1ccc(-c2c3ccc(=O)cc-3oc3cc(O)ccc23)c(C)c1` [Compound 15] displayed a Φfl in series [5] (pH 9.0) of 0.87.

`COC(=O)COc1ccc(-c2c3ccc(=O)cc-3oc3cc(O[C@@H]4OC(COC(C)=O)[C@H](OC(C)=O)C(OC(C)=O)C4OC(C)=O)ccc23)c(C)c1` (stereo partly shown) [Compound 16] registered a Φfl in series [5] (pH 7.4) of 0.069.

Take `COC(=O)CCCCOc1ccc(-c2c3ccc(=O)cc-3oc3cc(O)ccc23)c(C)c1` [Compound 17]: the Φfl in series [5] (pH 9.0) stood at 0.82.

For the compound `COC(=O)CCCCOc1ccc(-c2c3ccc(=O)cc-3oc3cc(O[C@@H]4OC(COC(C)=O)[C@H](OC(C)=O)C(OC(C)=O)C4OC(C)=O)ccc23)c(C)c1` (stereo partly shown) [Compound 18], the Φfl in series [5] (pH 7.4) came to 0.005.
